In brackets after ≈: the same amount, converted by molar mass. Read-outs that look alike come from different tables or passages of the source.
Legend:
[1] = test system: P. gingivalis ATCC 33277 cells; details: literature (Poulet et al. 1999; Mitchell 1984); cited from earlier work
F. nucleatum = assay: Growth inhibition assay on an unrelated organism; format: cell-based, Fusobacterium nucleatum; details: 20 μM, over 72 h (FIG. 7C)
Method: As it is useful to test the mono-adducts 20 and 21 on non-related bacteria as well, as there is a large and complex community of bacteria present in the gingival crevice causing periodontal diseases, the mono-adducts 20 and 21 were also tested on the unrelated organism F. nucleatum.
(§1) Bovine hemoglobin (Hb), Hb-agarose beads, hemin (Hm) and Hm-agarose beads were supplied by Sigma-Aldrich Company. The translated product of a synthetic HA2 gene, derived from the sequence of RgpA, was expressed in E. coli with a C-terminal polyhistidine tag (International Patent Application No. WO 2002061091) and is referred to as rHA2. rHA2 was functionally purified by Hb-agarose affinity chromatography. Anti-gingipain monoclonal antibody (mAb) 5A1 was prepared in mice. Secondary goat anti-mouse antibody conjugated with alkaline phosphatase (AP) was supplied by Dako Corporation. 4-nitrophenylphosphate (p-NPP) was supplied by Boehringer. P. gingivalis ATCC 33277 cells was used in all growth assays and cultures were anaerobically grown at 37° C. in an atmosphere containing CO2 (5%), H2 (10%) and N2 (85%). P. gingivalis and P. melaminogenica cells were grown in Center for Disease Control (CDC) medium and F. nucleatum cells were grown in Brain Heart Infusion (BHI) medium.

P. melaminogenica = assay: Growth inhibition assay on a related organism; format: cell-based, Prevotella melaminogenica; details: 20 μM, over 72 h (FIG. 7B)
Method: as §1

[2] = test system: P. gingivalis ATCC 33277 cells; assay: Growth inhibition assay, turbidity (optical density) over 72 h; format: cell-based, Porphyromonas gingivalis
Method: The mono-adducts 20 and 21 and metronidazole were tested on the targeted organism, P. gingivalis with the standard controls to compare the potency of the mono-adducts 20 and 21 compared to metronidazole towards the targeted organism. In a 96-well polystyrene plate divided into four sections, a series of dilutions of the mixture of the mono-adducts 20 and 21, metronidazole, DPIX 5 and DMSO were made up. These were transferred into test-tubes in quadruplicate and the P. gingivalis cells were added in triplicate leaving one test-tube as a blank control free of P. gingivalis cells. The growth of the P. gingivalis cells were monitored over 3 days (72 h) and growth was noted by the turbidity of the medium and recorded as the optical density.
The growth inhibition assays show differences in growth responses to metronidazole and the mixture of the mono-adducts 20 and 21.
as §1
Cultivation and biological testing were carried out on P. gingivalis ATCC 33277 cells and the cultures were anaerobically grown at 37° C. in an atmosphere containing CO2 (5%), H2 (10%) and N2 (85%). The cultures were inoculated with heme, menadione and either DMSO, DPIX 5, metronidazole, DPIX 5+ metronidazole or adduct 20 and 21. In a 96-well polystyrene plate divided into four sections, a series of dilutions of the mixture of the mono-adducts 20 and 21, metronidazole, DPIX 5 and DMSO were made up. These were transferred into test-tubes in quadruplicate and the P. gingivalis cells were added in triplicate leaving one test-tube as a blank control free of P. gingivalis cells. The growth of the P. gingivalis cells were monitored over 3 days (72 h) and growth was noted by the turbidity of the medium and recorded as the optical density.

[3] = target: HA2 domain (rHA2, derived from the sequence of RgpA); assay: ELISA binding of plate-coated porphyrin to rHA2; design: species or system Porphyromonas gingivalis; details: FIG. 5, mean of three similar KD50s, read-out: KD50 to HA2
Method: The KD50 of the mono-adducts 20 and 21 to HA2 was established using Enzyme-Linked ImmunoSorbent Assay (ELISA), whereby a 96-well polystyrene plate was coated with either the mono-adducts 20 and 21 or hemin in an alkaline coating buffer at pH 9.0. The plates were then washed and blocked for 30 min with a phosphate buffered saline solution containing Tween-20, a […] detergent to prevent any non-specific binding. Dilutions of HA2 in a slightly acidic acetate buffer at pH 5.5 were then titrated down the rows of the 96-well plate and the plate was incubated in an IR Sensor CO2 incubator at 37° C. for 1.5 h to allow binding of either the mono-adducts 20 and 21 or hemin to HA2. […] A secondary goat anti-mouse antibody conjugated with alkaline phosphatase (AP) was then added to detect the primary antibody and the binding of either the mono-adducts 20 and 21 or hemin to HA2 was recorded as optical density on a Bio-rad Microplate reader as the amount of dephosphorylation of the substrate para-nitrophenolphosphate to para-nitrophenol catalyzed by AP. […]
The mixture of mono-metronidazole-substituted adducts 20 and 21 and heme (both at 5 μg/ml) were coated on the plastic well surfaces of a 96-well plate in coating buffer at pH 9.0. […] Apparent dissociation constants were calculated from best-fit KD50 binding curves.

[4] = target: HA2 domain (rHA2, derived from the sequence of RgpA); details: known value for the standard; read-out: binding dissociation constant to HA2; cited from earlier work

Compound	activity against P. gingivalis [1]	growth inhibition of F. nucleatum (F. nucleatum)	growth inhibition of P. melaminogenica (P. melaminogenica)	growth suppression of P. gingivalis ([2]; 0.5 μM, over 72 h (FIG. 6E))	time after which activity is lost and P. gingivalis growth recovers ([2]; 1 μM (FIG. 6D))	growth inhibition of P. gingivalis ([2]; 4 μM, over 72 h (FIG. 6B))	growth inhibition of P. gingivalis ([2]; 20 μM, over 72 h (FIG. 6A, FIG. 7A))	growth suppression of P. gingivalis ([2]; 2 KM, over 72 h (FIG. 6C))	MIC ([2]; Porphyromonas gingivalis, ATCC33277, P. gingivalis, approximate, from FIG. 6, read-out: Minimum Inhibitory Concentration (MIC)) [µM]	Kd [3] [nM]	Kd [4] [nM]
Cc1ncc([N+](=O)[O-])n1CCO [metronidazole]	excellent activity	complete inhibition	complete suppression of growth	no effect of growth suppression	approximately 50 h	complete inhibition	complete inhibition of growth	completely supresses growth	1 to 2 (≈ 0.171 to 0.342 µg/mL)		
hemin										15	~15
